Assay results published in patent US6407288B1, “Naphthylsalicylanilides as antimicrobial and antiinflammatory agents” (The Research Foundation of State University of New York, priority 2000, dated 2002).

What was measured:
[1] = tested on: S. sanguis; test: MIC microdilution, gram positive; format: cell-based, Streptococcus sanguis; settings: Table 1, Gram Positive
Procedure: (§1) The MIC's for the compounds were determined by a modified microdilution tube dilution method described in “Methods for Dilution Antimicrobial Susceptibility Tests for Bacteria that Grow Aerobically” (National Committee for Clinical Laboratory Standards Approved Standards, 1997, NCCLS document M7-A4). In general the modifications were made because of the unique growth requirements for the fastidious oral organisms and for those bacteria that require anaerobic conditions. Reference is also made to “Methods for Antimicrobial Susceptibility of Anaerobic Bacteria” (National Committee for Clinical Laboratory Standards Approved Standards, 1997, NCCLS document M11-A4). Briefly, the methods were as follows. Cultures were grown for 18-24hrs (aerobic bacteria) or 48-72 hrs (anaerobic bacteria) in the appropriate medium. For aerobic bacteria full strength brain heart infusion medium (BHI, Difco) was used. For anaerobic bacteria, half strength BHI (18.5 g/L) was supplemented by adding yeast extract (10 g/L), hemin (0.29 mL of a stock solution containing 0.1 g/200 mL dH2O) and menadione (15 mL of a stock solution containing 0.15 mL in 30 mL 95% EtOH) was used. Initial cultures were diluted to approximately 1×10^8 CFU/mL for use as an inoculum. Each assay received 10 μL of the inoculum. The drugs were prepared from a stock solution contained in dimethyl sulfoxide (DMSO) and diluted into the culture medium. Final concentrations of the drugs ranged from 50 to 0.05 μg/assay. The tests were run in duplicate and were incubated appropriately with regard to oxygen requirements for 24 to 48 hrs as required. Anaerobic incubation was an atmosphere of 5% CO2, 10% H2, with the balance N2. The lowest concentration of an antimicrobial agent at which no visible growth is noted was referred to as the MIC.

[2] = tested on: S. mutans; test: MIC microdilution, gram positive; format: cell-based, Streptococcus mutans; settings: Table 1, Gram Positive
Procedure: as §1

[3] = tested on: S.salivarius; test: MIC microdilution, gram positive; format: cell-based, Streptococcus salivarius; settings: Table 1, Gram Positive
Procedure: as §1

[4] = tested on: M. luteus; test: MIC microdilution, gram positive; format: cell-based, Micrococcus luteus; settings: Table 2, Gram Positive
Procedure: as §1

[5] = tested on: Aa Y4; test: MIC microdilution, gram negative; format: cell-based, Actinobacillus actinomycetemcomitans
Procedure: (§2) The MIC's for the compounds were determined by a modified microdilution tube dilution method described in “Methods for Dilution Antimicrobial Susceptibility Tests for Bacteria that Grow Aerobically” (National Committee for Clinical Laboratory Standards Approved Standards, 1997, NCCLS document M7-A4). In general the modifications were made because of the unique growth requirements for the fastidious oral organisms and for those bacteria that require anaerobic conditions. Reference is also made to “Methods for Antimicrobial Susceptibility of Anaerobic Bacteria” (National Committee for Clinical Laboratory Standards Approved Standards, 1997, NCCLS document M11-A4). Briefly, the methods were as follows. Cultures were grown for 18-24hrs (aerobic bacteria) or 48-72 hrs (anaerobic bacteria) in the appropriate medium. For aerobic bacteria full strength brain heart infusion medium (BHI, Difco) was used. For anaerobic bacteria, half strength BHI (18.5 g/L) was supplemented by adding yeast extract (10 g/L), hemin (0.29 mL of a stock solution containing 0.1 g/200 mL dH2O) and menadione (15 mL of a stock solution containing 0.15 mL in 30 mL 95% EtOH) was used. Initial cultures were diluted to approximately 1×10^8 CFU/mL for use as an inoculum. Each assay received 10 μL of the inoculum. The drugs were prepared from a stock solution contained in dimethyl sulfoxide (DMSO) and diluted into the culture medium. Final concentrations of the drugs ranged from 50 to 0.05 μg/assay. The tests were run in duplicate and were incubated appropriately with regard to oxygen requirements for 24 to 48 hrs as required. Anaerobic incubation was an atmosphere of 5% CO2, 10% H2, with the balance N2. The lowest concentration of an antimicrobial agent at which no visible growth is noted was referred to as the MIC. […] The method used was the same as described in Example 1.

[6] = tested on: Lact 7496; test: MIC microdilution, gram positive; format: cell-based, Lactobacillus rhamnosus (casei); settings: Table 2, Gram Positive
Procedure: as §1

[7] = tested on: S. species R; test: Staphylococcus MIC; format: cell-based, staphylococcus species R; settings: second Table 5 (Example 5); strain 00-045-1209
Procedure: (§3) The MIC's for the compounds were determined by a modified microdilution tube dilution method described in “Methods for Dilution Antimicrobial Susceptibility Tests for Bacteria that Grow Aerobically” (National Committee for Clinical Laboratory Standards Approved Standards, 1997, NCCLS document M7-A4). In general the modifications were made because of the unique growth requirements for the fastidious oral organisms and for those bacteria that require anaerobic conditions. Reference is also made to “Methods for Antimicrobial Susceptibility of Anaerobic Bacteria” (National Committee for Clinical Laboratory Standards Approved Standards, 1997, NCCLS document M11-A4).
(§4) Briefly, the methods were as follows. Cultures were grown for 18-24hrs (aerobic bacteria) or 48-72 hrs (anaerobic bacteria) in the appropriate medium. For aerobic bacteria full strength brain heart infusion medium (BHI, Difco) was used. For anaerobic bacteria, half strength BHI (18.5 g/L) was supplemented by adding yeast extract (10 g/L), hemin (0.29 mL of a stock solution containing 0.1 g/200 mL dH2O) and menadione (15 mL of a stock solution containing 0.15 mL in 30 mL 95% EtOH) was used. Initial cultures were diluted to approximately 1×10^8 CFU/mL for use as an inoculum. Each assay received 10 μL of the inoculum. The drugs were prepared from a stock solution contained in dimethyl sulfoxide (DMSO) and diluted into the culture medium. Final concentrations of the drugs ranged from 50 to 0.05 μg/assay. The tests were run in duplicate and were incubated appropriately with regard to oxygen requirements for 24 to 48 hrs as required. Anaerobic incubation was an atmosphere of 5% CO2, 10% H2, with the balance N2. The lowest concentration of an antimicrobial agent at which no visible growth is noted was referred to as the MIC.
(§5) This embodiment describes the sensitivity of various staphylococcus strains to the compounds of the present invention. The staphylococcus species R is a strain 00-045-1209 from the Children's Hospital in Buffalo. It was isolated from the peritoneal cavity (fluid culture) of an individual. It was coagulase negative. The sensitivity of this strain was tested agaisnt several known antibiotics.

[8] = tested on: Fuso. 25586; test: MIC microdilution, gram negative; format: cell-based, Fusobacterium nucleatum
Procedure: as §2

[9] = tested on: A. viscosus; test: MIC microdilution, gram positive; format: cell-based, Actinomyces viscosus; settings: Table 2, Gram Positive
Procedure: as §1

[10] = tested on: Str. pyo; test: Mean Streptococcus MIC; format: cell-based; settings: Table 5, mean
Procedure: as §3, §4
(§6) This embodiment illustrates the efficacy of the compounds of the present invention against Streptococcus strains. One of the strains, Str.pn.R was obtained from the Children's Hospital in Buffalo (strain 00-041-0614). […] The sensitivity of this strain was tested against several known antibiotics.

[11] = tested on: Str. pn; test: Mean Streptococcus MIC; format: cell-based; settings: Table 5, mean
Procedure: as §3, §4, §6

[12] = tested on: Str. pn. R; test: Mean Streptococcus MIC; format: cell-based; settings: Table 5, mean; strain resistant to penicillin and erythromycin
Procedure: as §3, §4, §6

[13] = tested on: P. acnes 11828; test: MIC microdilution, gram positive; format: cell-based, Propionibacterium acnes; settings: Table 1, Gram Positive
Procedure: as §1

[14] = tested on: P. acnes 6922; test: MIC microdilution, gram positive; format: cell-based, Propionibacterium acnes; settings: Table 1, Gram Positive
Procedure: as §1

[15] = tested on: Pg 53977; test: MIC microdilution, gram negative; format: cell-based, Porphyromonas gingivalis
Procedure: as §2

[16] = tested on: P. ging 381; test: MIC microdilution, gram negative; format: cell-based, Porphyromonas gingivalis
Procedure: as §2

[17] = tested on: B. fragilis; test: MIC microdilution, gram negative; format: cell-based, Bacteroides fraglis
Procedure: as §2

[18] = tested on: S. aureus; test: MIC microdilution, gram positive; format: cell-based, Staphlococcus aureus
Procedure: as §3, §4, §5

[19] = Table 3 printed a second time, Gram Negative

MIC S. sanguis [1] [micrograms/ml] | MIC M. luteus [4] [micrograms/ml] | MIC Lact 7496 [6] [micrograms/ml] | MIC A. viscosus [9] [micrograms/ml] | Mean Streptococcus MIC values Str. pn [11] [micrograms/ml] | Mean Streptococcus MIC values Str. pn. R [12] [micrograms/ml] | MIC P. acnes 11828 [13] [micrograms/ml] | MIC P. acnes 6922 [14] [micrograms/ml] | MIC Pg 53977 ([15]; Table 3, Gram Negative) [micrograms/ml] | MIC Pg 53977 [15, 19] [micrograms/ml] | MIC P. ging 381 ([16]; Table 3, Gram Negative) [micrograms/ml] | MIC P. ging 381 [16, 19] [micrograms/ml] | Compound | MIC S. mutans [2] | MIC S.salivarius [3] | MIC Aa Y4 ([5]; Table 3, Gram Negative) | MIC Aa Y4 [5, 19] | MIC S. species R [7] | MIC Fuso. 25586 ([8]; Table 3, Gram Negative) | MIC Fuso. 25586 [8, 19] | Mean Streptococcus MIC values Str. pyo [10] | other results
12.5 | 0.8 | 3.1 | 1.6 | 0.65 | 0.78 | 0.2 | 0.4 | 0.4 | 0.4 | 0.4 | 0.4 | CCCCCCCCCCCCS(=O)(=O)c1ccc(O)c(C(=O)Nc2cccc(C(F)(F)F)c2)c1 [TMF-12, reference compound] | NE (NE indicates that the drug was not effective at a concentration >50 micrograms/ml) | NE (NE indicates that the drug was not effective at a concentration >50 micrograms/ml) | NE (NE indicates that the drug was not effective at a concentration >50 micrograms/ml) | NE (NE indicates that the drug was not effective at a concentration >50 micrograms/ml) | NE (NE indicates that the drug was not effective at a concentration >50 micrograms/ml) | NE (NE indicates that the drug was not effective at a concentration >50 micrograms/ml) | NE (NE indicates that the drug was not effective at a concentration >50 micrograms/ml) | 0.47 micrograms/ml | MIC B. fragilis ([17]; Table 3, Gram Negative): NE (NE indicates that the drug was not effective at a concentration >50 micrograms/ml); MIC B. fragilis [17, 19]: NE (NE indicates that the drug was not effective at a concentration >50 micrograms/ml); MIC S. aureus ([18]; Table 2, Gram Positive): NE (NE indicates that the drug was not effective at a concentration >50 micrograms/ml); MIC S. aureus ([18]; second Table 5 (Example 5)): NE (NE indicates that the drug was not effective at a concentration >50 micrograms/ml)
6.3 | 3.1 | 12.5 | 1.6 | 0.91 | 6.25 | 12.5 | 6.3 | 0.8 | 0.8 | 0.8 | 0.8 | N#Cc1cccc(NC(=O)c2cc(C(=O)c3ccc4ccccc4c3)ccc2O)c1 [NA2mC] | 6.3 micrograms/ml | 50 micrograms/ml | NE (NE indicates that the drug was not effective at a concentration >50 micrograms/ml) | NE (NE indicates that the drug was not effective at a concentration >50 micrograms/ml) | NE (NE indicates that the drug was not effective at a concentration >50 micrograms/ml) | NE (NE indicates that the drug was not effective at a concentration >50 micrograms/ml) | NE (NE indicates that the drug was not effective at a concentration >50 micrograms/ml) | NE (NE indicates that the drug was not effective at a concentration >50 micrograms/ml) | MIC B. fragilis ([17]; Table 3, Gram Negative): 3.1 micrograms/ml; MIC B. fragilis [17, 19]: 3.1 micrograms/ml; MIC S. aureus ([18]; Table 2, Gram Positive): NE (NE indicates that the drug was not effective at a concentration >50 micrograms/ml); MIC S. aureus ([18]; second Table 5 (Example 5)): NE (NE indicates that the drug was not effective at a concentration >50 micrograms/ml)
